Results on two molecules are retold here after PMC10299588, “Bromotyrosine-Derived Metabolites from a Marine Sponge Inhibit Pseudomonas aeruginosa Biofilms” (International Journal of Molecular Sciences, 2023).

The assay deals with PAO1ΔpslA (Psl deletion mutant). Description: Biofilm inhibition assay (OD600 growth and resazurin biofilm viability). Format: cell-based, Pseudomonas aeruginosa. As to the method: Figure 2 Biofilm assays to identify compounds that prevent biofilm formation. Biofilm inhibition assay. P. aeruginosa cultures were seeded into 384-well plates after dispensing compounds and antibiotics. The plates were incubated for 24 h at 37 °C followed by recording bacterial growth (OD600) and measuring the viability of biofilm bacteria using resazurin.
The overnight cultures at 37 °C in LB medium were washed once with sterile saline 0.9% (w/v) and adjusted to an OD600 of 0.05, and 1% inoculum was transferred into a fresh LB medium. Following incubation at 37 °C, 200 rpm for 6–6.5 h to reach the mid-log phase, the cells were washed once with sterile saline 0.9% and diluted to an OD600 of 0.01. Then, 45 µL aliquots were dispensed into 384-well plates (Greiner Bio-One, Kremsmünster, Austria, catalog no. 781091). In biofilm inhibition assays, test compounds (5 µL) were loaded prior to the addition of bacteria. The plates were incubated for 24 h at 37 °C in static conditions. The effects of compounds on bacterial growth and viability of biofilm bacteria were determined by the OD600 and resazurin metabolic assay, respectively. The final concentrations of DMSO in the assays were 1–2%. The negative controls or untreated cultures consisted of inoculum and different concentrations of DMSO. Antibiotic ciprofloxacin (0.25 µg/mL and 25 µg/mL) was used as positive controls. The initial OD600 and final OD600 were read before incubation at 37 °C and after 24 h incubation, respectively, followed by assessment of biofilm viability by resazurin metabolic assay. The experiments were carried out with three technical replicates and repeated at least twice. The growth inhibition was calculated as a function of the percentage of the total bacterial inhibition using Equation (1), where AB is the OD600 of LB medium, and AT0 and ATf are the OD600 recorded at inoculating time and at the end of the assay. (1) % Inhibition=100 × [ 1 − [OD600 (Asample Tf− Asample T0)−(AB Tf − AB T0)/OD600 (Anegative control Tf− Anegative control T0)−(AB Tf − AB T0)]]
Resazurin sodium salt (Sigma-Aldrich, St. Louis, MI, USA) was dissolved in Milli-Q water at 0.2% (w/v) and filter sterilized. The solution was stored at −20 °C in the dark. The assay was performed as previously described with modification. The cultures were withdrawn, and the plates were washed three times with sterile water using the plate washer (BioTek). To remove the remaining water in the wells, the plates were tapped with autoclaved paper towels. An amount of 50 µL of diluted RSZ solution in LB medium was added into each well, followed by incubation at 37 °C for 5–6 h. A microplate reader (BioTek Synergy 2) was used to measure the fluorescence intensity (excitation 530 nm, emission 590 nm). Data collected were determined as a function of fluorescence percentage using Equation (2), where FB is the fluorescence of the diluted RSZ solution in LB medium in the absence of P. aeruginosa cells. (2) % Inhibition=[(Fnegative control −FB )−(Fsample −FB )/(Fnegative control − FB )]×100
On the technique in general: Alamar Blue is a resazurin reagent that responds to reducing activity.

`COc1c(Br)cc(/C=C/C(=O)NCCCNCCCCN)cc1Br` [Compound 2, ianthelliformisamine B]: the interaction with ciprofloxacin entry (ciprofloxacin 1/3 and 1/4 MIC) is “no synergistic interaction”. Further, the “effect on growth and biofilm formation” value (compound alone) was “marginal effects”.
Consider `COc1c(Br)cc(/C=C/C(=O)NCCCNCCCCNCCCNC(=O)/C=C/c2cc(Br)c(OC)c(Br)c2)cc1Br` [Compound 3, ianthelliformisamine C], for which the “synergistic interaction with ciprofloxacin, planktonic forms and biofilms” value (compound 53.1 µg/mL) was “negligible synergistic interactions”. The biofilm inhibition (compound 106.2 µg/mL + sub-lethal doses of ciprofloxacin) was ~ 100%. For the same molecule, where the note is “compound alone 106.2 µg/mL”, the “killing of planktonic and biofilm populations” value is given as “completely killed”; the planktonic growth inhibition result is recorded as “independently inhibited planktonic growth”.
